According to patent US20230270767A1, “INHIBITORS OF ENPP1 AND METHODS OF USING SAME” (The Regents of the University of California, priority 2017, published 2023):

Tests used:
[1] = tested on: C3H mice; assay: Post injury cardiac calcification after cardiac cryo injury in mice (gross inspection, micro CT, biochemical calcium measurement); format: in vivo, mouse; conditions: for post injury cardiac calcification on gross inspection: ENPP1 inhibitor by continuous infusion (mini pump) for 2 days prior to cardiac injury and 5 days after injury, compared to vehicle; for reduction in calcium deposits in the injured hearts (biochemical measurements): ENPP1 inhibitor by continuous infusion for 2 days prior to and 5 days after injury, p<0.05; for decrease in calcific deposits / calcification on micro CT with 3D reconstruction: ENPP1 inhibitor by continuous infusion for 2 days prior to cardiac injury and 5 days after injury, compared to vehicle treated animals
Text: We next investigated whether cardiac fibroblasts can adopt osteoblast cell like fates in vivo and directly contribute to ectopic calcification of the myocardium. To address this question, we created three murine models of myocardial calcification and determined with lineage trace techniques whether genetically labeled cardiac fibroblasts adopted an osteoblast phenotype and contributed to heart calcification in vivo. Cardiac injury or aging in certain strains of mice (e.g. C3H/HeJ, BALB/cByJ, DBA/2J) can lead to the development of calcification within the myocardium (Glass et al., 2013);(Ivandic et al., 1996);(Korff et al., 2006). We used several different methods to induce myocardial injury in C3H strain of mice. First, we administered high dose systemic steroids daily for 10 days which is known to induce myocyte necrosis (Sparks et al., 1955). […] Finally, ischemic injury of the myocardium by ligating the left anterior descending (LAD) coronary artery, (Korff et al., 2006) led to patchy calcification of the injury region within 4 weeks of ischemic insult (Cell Stem Cell (2017) 20:1-15, the FIGURE). Consistent with the known association of fibrosis and calcification, we observed calcification only in regions where there was fibrosis (identified by Masson trichrome staining) (Cell Stem Cell (2017) 20:1-15, the FIGURE).
Calcification of the extracellular matrix is critically regulated by the balance of extracellular phosphate (Pi) and pyrophosphate (PPi) (Terkeltaub, 2001). Pyrophosphate is generated at the cell surface by the enzyme ectonucleotide pyrophosphatase/phosphodiesterase-1 (ENPP1) that breaks down ATP to AMP and PPi. Pyrophosphate is well recognized to inhibit calcium hydroxyapatite mineralization (Rutsch et al., 2011) in non-skeletal tissues, but in bone and teeth, pyrophosphate promotes mineralization by serving as a substrate for tissue non specific alkaline phosphatase that hydrolyzes pyrophosphate to generate inorganic phosphate (Terkeltaub, 2006). ENPP1 is expressed in osteoblasts, thought to regulate osteoblast maturation and bone mineralization and animals deficient in ENPP1 have decreased mineralization of long bones (Johnson et al., 2003). Considering the importance of ENPP1 in mineralization of the skeleton, we examined whether ENPP1, a gene identified by us to be differentially expressed (by RNA-seq) between calcific and non-calcified cardiac regions was contributing to ectopic cardiac calcification. We first confirmed our observation and subjected C3H mice and B6 mice to cryo-induced cardiac injury. […] Immunostaining for ENPP1 confirmed that ENPP1 was expressed in uninjured B6 hearts (Cell Stem Cell (2017) 20:1-15, the FIGURE) and was more abundant following injury (Cell Stem Cell (2017) 20:1-15, the FIGURE). […] We next determined whether cardiac fibroblasts in the injury region were a source of increased ENPP1 expression. We subjected Col1a2CreERT:R26R^tdTomato mice hearts to cardiac injury and observed abundant expression of ENPP1 by tdTomato labeled cardiac fibroblasts in calcified regions. (Cell Stem Cell (2017) 20:1-15, the FIGURE). Extracellular pyrophosphate generated by ENPP1 can induce mineralization of tissues by precipitating out as calcium pyrophosphate dihydrate (CPPD) or serving as a substrate for phosphate generation and formation of calcium hydroxyapatite. To distinguish between these two, we performed Raman spectroscopy (Chen et al., 2009) and observed that the myocardial calcific deposits comprised calcium hydroxyapatite and not pyrophosphate dihydrate (Cell Stem Cell (2017) 20:1-15, the FIGURE). PPi generated by ENPP1 can be hydrolyzed by tissue non-specific alkaline phosphatase (TNAP) to Pi. The heart is known to express TNAP and we confirmed that both injured and uninjured cardiac tissue is rich in tissue non-specific alkaline phosphatase (TNAP) (Cell Stem Cell (2017) 20:1-15, the FIGURE). […]

[2] = tested on: C3H animals; assay: Echocardiography of cardiac function after cardiac cryo-injury; format: in vivo, mouse
Text: We next investigated the physiologic significance of inhibiting cardiac calcification on cardiac function. In a subset of C3H animals, we performed echocardiography to determine cardiac function prior to cardiac cryo-injury and following administration of etidronate. […] Etidronate had no effect on sham injured hearts (Cell Stem Cell (2017) 20:1-15, the FIGURE).

[3] = post injury, compared to vehicle treated control animals

Which results are given for `O=C(/C=C/c1ccc(O)c(O)c1)O[C@H](Cc1ccc(O)c(O)c1)C(=O)O` [SYL-001, rosmarinic acid]?
post injury cardiac calcification on gross inspection [1]: decreased post injury cardiac calcification; reduction in calcium deposits in the injured hearts (biochemical measurements) [1]: 35%; decrease in calcific deposits / calcification on micro CT with 3D reconstruction [1]: 42%

How did the “post injury cardiac calcification on gross inspection” value [1] turn out when `CCN(CC)c1ncnc2c1ncn2[C@@H]1O[C@H](COP(=O)([O-])OP(=O)([O-])C(Br)(Br)P(=O)([O-])O)C(O)C1O.[Na+].[Na+].[Na+]` (stereo partly shown) [ARL67156] was run?
The value was “significantly inhibited calcification”.

What about the “reduction in calcium deposits in the injured hearts (biochemical measurements)” value [1] of the same molecule?
Its value is 79%.

And the “decrease in calcific deposits / calcification on micro CT with 3D reconstruction” value [1]?
Its value is 85%.

How did the “amount of deposited calcium” value ([1]; administered after the development of calcification, data not shown) turn out when `CC(O)(P(=O)(O)O)P(=O)(O)O` [etidronate, etidronic acid] was run?
Its value is “did not reverse or decrease the amount of deposited calcium”.

What about the “calcification on gross inspection or on CT scans” value ([1]; administered one day prior to cardiac cryo injury and then daily till hearts were harvested) of the same molecule?
The value was “no calcification was seen”.

What about the calcific phenotype ([1]; administered one day prior to cardiac cryo injury and then daily till hearts were harvested, vs vehicle injected controls) of the same molecule?
The calcific phenotype was “completely rescued the calcific phenotype”.

What about the “post injury cardiac function” value ([2]; C3H animals, cardiac cryo-injury, echocardiography) of the same molecule?
The value was “significant preservation of post injury cardiac function”.

And the Ejection fraction ([2]; following injury)?
The Ejection fraction was “substantially better”.

What about the fractional shortening ([2]; following injury) of the same molecule?
The fractional shortening was “substantially better”.

And the systolic function ([2]; injured animals, echocardiography)?
The systolic function was “better systolic function”.

And the “left ventricular end diastolic diameter (LVEDD)” value [2, 3]?
The value was “significantly decreased”.

And the “left ventricular end systolic diameter (LVESD)” value [2, 3]?
The value was “significantly decreased”.

And the “effect on sham injured hearts” value ([2]; sham injured hearts)?
Its value is “no effect”.
